Earlier results as cited in patent US20190167601A1, “APPARATUS AND METHOD FOR ZERO ORDER DRUG DELIVERY FROM MULTILAYER AMPHIPHILIC CO-NETWORKS” (The University of Akron, priority 2016, published 2019).
Structures can show the parent of a compound that is named as a salt.

## COc1c(N2C[C@@H]3CCCN[C@@H]3C2)c(F)cc2c(=O)c(C(=O)O)cn(C3CC3)c12 [Moxifloxacin Hydrochloride]
  maximum drug solubility in water: 168 µg/mL

## CC(C)OC(=O)CCC/C=C\C[C@@H]1[C@@H](CC[C@@H](O)CCc2ccccc2)[C@H](O)C[C@@H]1O [Latanoprost]
  maximum drug solubility in water: 8000 µg/mL
